Reference: patent US4550102A, “Cephem compounds” (Fujisawa Pharmaceutical Co. Ltd., priority 1981, dated 1985)

Legend:
Experiment in all cases: In vitro antimicrobial activity, two-fold agar-plate dilution method
Assay type in all cases: cell-based
E. coli 31 = conditions: Escherichia coli, heart infusion agar, 37° C., 20 hours, approximately 10^8 viable cells per ml, read-out: MIC (minimal inhibitory concentration)
Protocol: (§1) Test: In vitro Antimicrobial Activity
(§2) In vitro Antimicrobial activity was determined by the two-fold agar-plate dilution method as described below.
(§3) One loopful of an overnight culture of each test strain in Tripticase-soy broth (approximately 10^8 viable cells per ml) was streaked on heart infusion agar (HI-agar) containing graded concentrations of an antimicrobial agent, and the minimal inhibitory concentration (MIC) was expressed in term of μg/ml after incubation at 37° C. for 20 hours.

E. coli NIHJ JC - 2 = conditions: Escherichia coli, heart infusion agar, 37° C., 20 hours, approximately 10^8 viable cells per ml, read-out: MIC (minimal inhibitory concentration)
Protocol: as §1, §2, §3

K. pneumoniae 20 = conditions: Klebsiella pneumoniae, heart infusion agar, 37° C., 20 hours, approximately 10^8 viable cells per ml, read-out: MIC (minimal inhibitory concentration)
Protocol: as §1, §2, §3

- MIC (E. coli 31): < 0.025 µg/mL
- MIC (E. coli NIHJ JC - 2): < 0.025 µg/mL
- MIC (K. pneumoniae 20): < 0.025 µg/mL
Structure (SMILES): CO/N=C(\C(=O)NC1C(=O)N2C(C(=O)[O-])=C(C[n+]3cccc(N)c3)CSC12)c1csc(N)n1 (stereo not drawn) [Compound A, 7-[2-Methoxyimino-2-(2-aminothiazol-4-yl)acetamido]-3-(3-amino-1-pyridiniomethyl)-3-cephem-4-carboxylate (syn isomer)]
